US20160090351A1, “INHIBITORS OF DEUBIQUITINATING PROTEASES” (BRANDEIS UNIVERSITY, priority 2013, published 2016)

Columns and labels:
Bcr-Abl kinase = assay: Bcr-Abl levels in K562 cells by immunoblotting; type: cell-based, human; conditions: for levels of Bcr-Abl: 50 μM, 2 h
[1] = system: USP9x, USP19, USP7/8, USP28/15; assay: HA-Ub-VS activity profiling in cell lysates, USPs; type: biochemical, human; conditions: for HA-Ub-VS labeling of USPs: HEK 293T lysates
Protocol: HA-ubiquitin vinylsulfone (HA-Ub-VS) irreversibly labels DUBs by modifying the catalytic cysteine residue Inhibition of the DUB prevents HA-Ub-VS labeling and the band is. […] The interaction with UCHL1/3 is reversible.
Lysate labeling assay on untransfected cells (1.5 mg/mL) was run with the stated concentration of inhibitor (or 1% DMSO control) for between 19-60 mins. After this time HA-Ub-VS (1.5-0.7 μM) was added and incubated for 19 mins. After this time reaction mixture (9 μL) was removed and quenched in 2× (final concentration) reducing loading buffer. For recovery experiments, a lysate of 6 mg/mL was treated with saturating compound C14 (250 μM) and incubated for 40 mins. Afterward, the lysate was diluted to 0.6 mg/mL (final concentration of inhibitor 25 μM) in lysis buffer (final volume 100 μL), then HA-Ub-VS was added. Aliquots (15 μL) were removed at the stated time (5-119 mins) and immediately quenched in 2× (final concentration) reducing loading buffer. For all HA-Ub-VS experiments samples in loading buffer were heated only to 37° C. prior to loading on a gel. This assay is highly susceptible to concentration of lysate and HA-Ub-VS. Cell experiments were carried out as above with some modifications. For Cos-1 and MCF-7 cells, after trypsinization, media with compound was added to give a final concentration of compound equal to that used in the assay. Cell pellets were lysed on an ice/salt bath with a temperature of −5° C. and lysate was centrifuged for only 5 mins.
HA-Ub-VS is an irreversible inhibitor of DUBs that is widely used in activity profiling. If the DUB inhibitors react to form a thiocarbonylated enzyme as proposed (FIG. 29B), then HA-Ub-VS labeling will be blocked. Treatment of HEK 293T lysates with HA-Ub-VS produced the characteristic pattern of protein bands at 250, 150-100, 45, 38 and 36 kDa, generally ascribed to USP9x (292 kDa), USP19 (146 kDa), USP7/8 (128 and 127 kDa, respectively), USP28/15 (122 and 112 kDa, respectively), UCH-L5 (38 kDa), UCH-L3 (26 kDa) and UCH-L1 (25 kDa) as depicted in FIG. 31.
The effect of diphenylcarbonates on HA-Ub-VS labeling was assessed to investigate the selectivity of DUB inhibition. Lysates were preincubated with diphenyl carbonates (75 μM), then treated with HA-Ub-VS (FIG. 31A). […] These C17 and C22-sensitive DUBs are most likely USP9x, USP19, USP7/8 and UCHL5, based on molecular weight (FIGS. 31B and 38). The identity of USP7 was confirmed by immunoblotting (FIG. 38F). […] Similar behavior was observed on Cos-1 cell lysates (FIG. 38B).

HEK 293T cells = assay: accumulation of K48- and K63-linked Ub species in HEK 293T cells; type: cell-based, human; conditions: 50 μM, 2 h
Protocol: FIG. 32 depicts data showing that diphenyl carbonates inhibit DUBs in HEK 293T cells. A. Viability of HEK 293T cells assessed by the propidium iodide exclusion method: diphenyl carbonate (100 μM), bortezomib (V, 20 μM) and G5 (2 μM). N≧3, mean+/−s.d. B. HEK 293T cells were treated with the stated compounds (50 μM) for 2 h and then assayed for the accumulation of K48-linked Ub species. C. As in A, but K63-linked Ub was assayed. D. HEK 293T cells were treated with C14, C15, C17, C18 (100 μM) or DMSO for 2 hours, then harvested, lysed and treated with HA-Ub-VS. After 30 min, lysates were analyzed by SDS-PAGE and probed for HA, tubulin and actin. An intervening lane was removed for clarity. E. HEK 293T cells expressing Ub-G76V-GFP were treated with diphenyl carbonates (100 μM), bortezomib (20 μM) and G5 (2 μM). […] N>3, Mean+/−s.d. See also FIG. 39. […]

[2] = 75 μM, 30 minutes preincubation

## NCc1ccc(OC(=O)Oc2ccc(Cl)cc2)cc1 [Compound C14, 4-(aminomethyl)phenyl(4-chlorophenol)carbonate]
Bcr-Abl kinase
  levels of Bcr-Abl: caused a decrease in the levels of Bcr-Abl
[1]; [2]
  HA-Ub-VS labeling of USPs: decreased HA-Ub-VS labeling of several USPs
HEK 293T cells
  accumulation of K48-linked HMW-Ub: K48-linked HMW-Ub species accumulated
  accumulation of K63-linked Ub chains: increase the accumulation of K63-linked Ub chains

## O=C1/C(=C/c2ccc([N+](=O)[O-])cc2)CS(=O)(=O)C/C1=C\c1ccc([N+](=O)[O-])cc1 [Compound G5, reference compound]
[1]; preincubation with G5
  HA-Ub-VS labeling of USPs: decreased the labeling of all the USPs

## NCc1ccc(OC(=O)Oc2ccc3ccccc3c2)cc1 [Compound C17]
Bcr-Abl kinase
  levels of Bcr-Abl: caused a decrease in the levels of Bcr-Abl
[1]; [2]
  HA-Ub-VS labeling of USPs: decreased HA-Ub-VS labeling of several USPs
[1]; at 12 μM
  HA-Ub-VS labeling, dose response: significantly inhibited the labeling of several high molecular weight proteins
HEK 293T cells
  accumulation of K48-linked HMW-Ub: K48-linked HMW-Ub species accumulated
  accumulation of K63-linked Ub chains: increase the accumulation of K63-linked Ub chains

## NCc1ccc(OC(=O)Oc2cccc3ccccc23)cc1 [Compound C18]
Bcr-Abl kinase
  levels of Bcr-Abl: caused a decrease in the levels of Bcr-Abl
[1]; [2]
  HA-Ub-VS labeling of USPs: decreased HA-Ub-VS labeling of several USPs
HEK 293T cells
  accumulation of K48-linked HMW-Ub: K48-linked HMW-Ub species accumulated
  accumulation of K63-linked Ub chains: increase the accumulation of K63-linked Ub chains

## NCc1ccc(OC(=O)Oc2ccc(Br)cc2)cc1 [Compound C15, 4-(aminomethyl)phenyl(4-bromophenyl)carbonate]
Bcr-Abl kinase
  levels of Bcr-Abl: caused a decrease in the levels of Bcr-Abl
Bcr-Abl kinase; C15 4 h
  Bcr-Abl, dose response: dose dependent decrease in Bcr-Abl
[1]; [2]
  HA-Ub-VS labeling of USPs: decreased HA-Ub-VS labeling of several USPs
HEK 293T cells
  accumulation of K48-linked HMW-Ub: K48-linked HMW-Ub species accumulated
  accumulation of K63-linked Ub chains: increase the accumulation of K63-linked Ub chains
